This note sets out measurements from patent US20100056497A1, “AMIDE DERIVATIVE” (DAINIPPON SUMITOMO PHARMA CO., LTD, priority 2007, published 2010).

Structures can show the parent of a compound that is named as a salt.

The assay addresses T1, Recombinant human renin (Homo sapiens, UniProt P00797).
T1 sequence (P00797 67-406): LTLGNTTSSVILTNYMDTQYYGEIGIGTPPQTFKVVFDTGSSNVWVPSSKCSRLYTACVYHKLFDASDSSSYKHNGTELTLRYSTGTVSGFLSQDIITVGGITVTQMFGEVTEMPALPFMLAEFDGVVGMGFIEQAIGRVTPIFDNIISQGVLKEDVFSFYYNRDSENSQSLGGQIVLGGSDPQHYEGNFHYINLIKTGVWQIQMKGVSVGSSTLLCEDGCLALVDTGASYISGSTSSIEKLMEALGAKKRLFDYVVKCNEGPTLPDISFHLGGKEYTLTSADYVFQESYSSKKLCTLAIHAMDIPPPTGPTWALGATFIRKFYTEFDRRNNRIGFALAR
Nature of the assay: In vitro renin inhibitory activity assay (fluorescence, FRET peptide substrate). It counts as biochemical. The note with it: 37° C., one hour, substrate 4 μM, pH 7.4. How it is done: In Vitro Renin Inhibitory Activity Assay
Recombinant human renin (50 ng) was reacted in 0.1M BEPES buffer (pH 7.4) containing 0.1M NaCl, 1 mM EDTA and 0.1 mg/mL BSA together with a substrate and a test compound at 37° C. for one hour. As the substrate, Arg-Glu(EDANS)-Ile-His-Pro-Phe-His-Leu-Val-Ile-His-Thr-Lys(DABCYL)-Arg or DABCYL-γ-Abu-Ile-His-Pro-Phe-His-Leu-Val-Ile-His-Thr-EDANS was added in such an amount so that the final concentration thereof became 4 μM. The elevated fluorescence intensity at the exciting wavelength 340 nm and the fluorescence wavelength 500 nm was measured by a fluorescence plate reader. The concentration of a test compound to be needed to inhibit an enzyme activity in the presence of a test compound in plural concentrations by 50% was calculated as an IC50 value.
The amino acid sequence disclosed in Seq ID:1 is an amino acid sequence used in the renin inhibitory activity assay.
The amino acid sequence disclosed in Seq ID:2 is an amino acid sequence used in the renin inhibitory activity assay.
Usually IC50 stands for the concentration needed to halve the response being measured. As for `CCOC(=O)C[C@H]1CC[C@@H](N(C(=O)c2ccc(OC)c(OCCCOC)c2)C(C)C)CN1` (racemic) [Example 14, Ethyl ((rac.)-(2R,5R)-5-{isopropyl[4-methoxy-3-(3-methoxypropoxy)benzoyl]-amino}piperidin-2-yl)acetate], the IC50 was determined as 930 nM. In the case of `CCCN(CC1CC1)C(=O)C[C@H]1CC[C@@H](N(C(=O)c2ccc(OC)c(OCCCOC)c2)C(C)C)CN1` (racemic) [Example 20, N-((rac.)-(3R,6R)-6-{2-[(Cyclopropylmethyl)(propyl)amino]-2-oxoethyl}piperidin-3-yl)-N-isopropyl-4-methoxy-3-(3-methoxypropoxy)benzamide hydrochloride], the IC50 was 420 nM. With `CCN(C(=O)C[C@H]1CC[C@@H](N(C(=O)c2ccc(OC)c(OCCCOC)c2)C(C)C)CN1)C(C)C` (racemic) [Example 22, N-((rac.)-(3R,6R)-6-{2-[Ethyl(isopropyl)amino]-2-oxoethyl}piperidin-3-yl)-N-isopropyl-4-methoxy-3-(3-methoxypropoxy)benzamide hydrochloride], the IC50 was 480 nM. The value for `COCCCOc1cc(C(=O)N(C(C)C)[C@@H]2CC[C@@H](CCN(C(=O)Cc3ccccc3)C3CC3)NC2)ccc1OC` (racemic) [Example 23, N-((rac.)-(3R,6S)-6-{2-[Cyclopropyl(phenylacetyl)amino]ethyl}piperidin-3-yl)-N-isopropyl-4-methoxy-3-(3-methoxypropoxy)benzamide hydrochloride] was 330 nM; that for `COCCCOc1cc(C(=O)N(C(C)C)C2CNC[C@@H](COC(=O)NCCc3ccccc3)C2)ccc1OC` (mixture of isomers) [Example 31, ((rac.)-(3S,5R)-5-{Isopropyl[4-methoxy-3-(3-methoxypropoxy)benzoyl]amino}-piperidin-3-yl)methyl(2-phenylethyl)carbamate hydrochloride] was 240 nM. With `COCCCOc1cc(C(=O)N(C(C)C)C2CNC[C@@H](C(=O)N(C)Cc3ccccc3)C2)ccc1OC` (mixture of isomers) [Example 41, (rac.)-(3S,5R)-N-Benzyl-5-{isopropy[4-methoxy-3-(3-methoxyproroxy)benzoyl]-amino}-N-methylpiperidine-3-carboxamide hydrochloride] the figure was 430 nM; with `COCCCOc1cc(C(=O)N(C(C)C)[C@H]2CNC[C@@H](CNC(=O)OCc3ccccc3)C2)ccc1OC` (racemic) [Example 43, Benzyl [((rac.)-(3S,5R)-5-{isopropyl[4-methoxy-3-(3-methoxypropoxy)benzoyl]-amino}piperidin-3-yl)methyl]carbamate hydrochloride], 770 nM. With `COCCCOc1cc(C(=O)N(C(C)C)[C@H]2CNCC[C@@H]2c2ccccc2)ccc1OC` (racemic) [Example 45, N-Isopropyl-4-methoxy-3-(3-methoxypropoxy)-N-[(rac.)-(3R,4R)-4-phenylpiperidin-3-yl]benzamide hydrochloride] the figure was 410 nM; with `COCCCOc1cc(C(=O)N(C(C)C)[C@H]2CNC[C@@H](COc3ccccc3-c3ccccc3)C2)ccc1OC` (racemic) [Example 46, N-{(rac.)-(3R,5S)-5-[(Biphenyl-2-yloxy)methyl]piperidin-3-yl}-N-isopropyl-4-methoxy-3-(3-methoxypropoxy)benzamide hydrochloride], 790 nM; with `COCCCOc1cc(C(=O)N(C(C)C)[C@H]2CNC[C@@H](COc3cccc(-c4ccccc4)c3)C2)ccc1OC` (racemic) [Example 48, N-{(rac.)-(3R,5S)-5-[(Biphenyl-3-yloxy)methyl]piperidin-3-yl}-N-isopropyl-4-methoxy-3-(3-methoxypropoxy)benzamide hydrochloride], 620 nM.

On to `COCCCOc1cc(C(=O)N(C(C)C)[C@H]2CNC[C@@H](COc3cccc(Oc4ccccc4)c3)C2)ccc1OC` (racemic) [Example 49, N-Isopropyl-4-methoxy-3-(3-methoxypropoxy)-N-{(rac.)-(3R,5S)-5-[(3-phenoxy-phenoxy)methyl]piperidin-3-yl}benzamide hydrochloride], for which the IC50 came out at 740 nM. The value for `COCCCOc1cc(C(=O)N(C(C)C)[C@H]2CNC[C@@H](COc3cccc(OCc4ccccc4)c3)C2)ccc1OC` (racemic) [Example 50, hydrochloride] was 540 nM; that for `COCCCOc1cc(C(=O)N(C(C)C)[C@@H]2CC[C@H](CC(=O)N(C(C)C)C3CCCCC3)NC2)ccc1OC` (racemic) [Example 51, N-((rac.)-(3R,6R)-6-{2-[Cyclohexyl(isopropyl)amino]-2-oxoethyl}piperidin-3-yl)-N-isopropyl-4-methoxy-3-(3-methoxypropoxy)benzamide hydrochloride] was 500 nM; that for `COCCCOc1cc(C(=O)N(C(C)C)[C@@H]2CC[C@H](CC(=O)NC3CC3)NC2)ccc1OC` (racemic) [Example 52, N-{ (rac.)-(3R,6R)-6-[2-(Cyclopropylamino)-2-oxoethyl]piperidin-3-yl)-N-isopropyl-4-methoxy-3-(3-methoxypropoxy)benzamide hydrochloride] was 590 nM.

For `COCCCOc1cc(C(=O)N(C(C)C)[C@@H]2CC[C@H](CCN(C(=O)Cc3ccccc3)C(C)C)NC2)ccc1OC` (racemic) [Example 55, N-Isopropyl-N-((rac.)-(3R,6R)-6-{2-[isopropyl(phenylacetyl)amino]ethyl}piperidin-3-yl)-4-methoxy-3-(3-methoxypropoxy)benzamide hydrochloride], the IC50 was determined as 690 nM. `COCCCOc1cc(C(=O)N(C(C)C)[C@H]2CNC[C@H](COC(=O)NC(C)C)C2)ccc1OC` (racemic) [Example 57, ((rac.)-(3R,5R)-5-{Isopropyl[4-methoxy-3-(3-methoxypropoxy)benzoyl]amino}-piperidin-3-yl)methyl isopropylcarbamate hydrochloride]: the IC50 worked out at 830 nM.

As for `CCN(CCc1ccccc1)C(=O)OC[C@@H]1CNC[C@H](N(C(=O)c2ccc(OC)c(OCCCOC)c2)C(C)C)C1` (racemic) [Example 58], the IC50 was determined as 150 nM. Regarding `CCCN(CCc1ccccc1)C(=O)OC[C@@H]1CNC[C@H](N(C(=O)c2ccc(OC)c(OCCCOC)c2)C(C)C)C1` (racemic) [Example 59], the IC50 came to 110 nM. The value for `COCCCOc1cc(C(=O)N(C[C@@H]2CCNC2)C(C)C)ccc1OC` [Compound B, reference compound] was 2300 nM; that for `COCCCOc1cc(C(=O)N(C(C)C)[C@@H]2CCCNC2)ccc1OC` [Example 1, N-Isopropyl-4-methoxy-3-(3-methoxypropoxy)-N-[(3R)-piperidin-3-yl]benzamide hydrochloride] was 330 nM; that for `COCCCOc1cc(C(=O)N(C(C)C)[C@@H]2CCCNC2)c(C)cc1OC` [Example 27, N-Isopropyl-4-methoxy-5-(3-methoxypropoxy)-2-methyl-N-[(3R)-piperidin-3-yl]-benzamide] was 190 nM.

Turning to `COCCCOc1cc(C(=O)N(C(C)C)[C@@H]2CCCNC2)c(Cl)cc1OC` [Example 53, 2-Chloro-N-isopropyl-methoxy-5-(3-methoxypropoxy)-N-[(3R)-piperidin-3-yl]-benzamide hydrochloride], the IC50 stood at 220 nM.

`COCCCOc1cc(C(=O)N(C(C)C)[C@@H]2CC[C@H](CCN(C(=O)CCOC)C3CC3)NC2)ccc1OC` [Example 64, N-((3R,6R)-6-{2-[Cyclopropyl(3-methoxypropanoyl)amino]ethyl}piperidin-3-yl)-N-isopropyl-4-methoxy-3-(3-methoxypropoxy)benzamide hydrochloride]: the IC50 stood at 16.8 nM. The value for `COCCCOc1cc(C(=O)N(C(C)C)[C@@H]2CC[C@H](CCN(C(=O)CCCO)C3CC3)NC2)ccc1OC` [Example 66, N-((3R,6R)-6-{2-[Cyclopropyl(4-hydroxybutanoyl)amino]ethyl}piperidin-3-yl)-N-isopropyl-4-methoxy-3-(3-methoxypropoxy)benzamide hydrochloride] was 61 nM. The value for `COCCCOc1cc(C(=O)N(C(C)C)[C@@H]2CC[C@H](CCN(C(=O)CC(C)(C)O)C3CC3)NC2)ccc1OC` [Example 67, N-((3R,6R)-6-{2-[Cyclopropyl(3-hydroxy-3-methylbutanoyl)amino]ethyl}piperidin-3-yl)-N-isopropyl-4-methoxy-3-(3-methoxypropoxy)benzamide hydrochloride] was 12.9 nM; that for `COCCCOc1cc(C(=O)N(C(C)C)[C@@H]2CC[C@H](CCN(C(=O)C=C(C)C)C3CC3)NC2)ccc1OC` [Example 68, N-((3R,6R-6-{2-[Cyclopropyl(3-methyl-2-butenoyl)amino]ethyl}piperidin-3-yl)-N-isopropyl-4-methoxy-3-(3-methoxypropoxy)benzamide hydrochloride] was 6.7 nM.
